Assays:
[1] = tested on: U138-MG human glioma cell; assay: Cell proliferation analysis (MTT); assay type: cell-based; details: Homo sapiens, 48 h, 10 µM, two days, MTT
Experimental: (§1) U87-MG and U138-MG human glioma cell, were incubated with 10% fetal bovine serum (FBS) (Gibco, 10500-064), 1% L-glutamine (Gibco, 25030-024), in a humidified incubator with 5% CO2 at 37 °C. The cells were contained in DMEM High Glucose (Gibco, 41966-029) supplemented with 1% penicillin-streptomycin (P/S) (Gibco 15140-122) solution. The cytotoxic effects of the target compounds on U87-MG and U138-MG cell lines were assessed using the MTT (Thiazolyl Blue Tetrazolium Bromide) method. 7×10^3 cells were seeded into a 96-well plate in 100 µl DMEM High Glucose 10% FBS and 1% P/S. 24 hours after cell incubation, each target compound was added at a dose of 10 µM and the drug treatment was carried out for two days. After the incubation period, 10 µL of MTT solution was added to each well (5 mg/ml in PBS). After 2 hours, MTT solutions were removed from the wells. Then, 100 µl DMSO was added, and mixed to dissolve the formazan crystals. Cell proliferation was analysed by measuring the absorbance of dissolved formazan at a wavelength of 570 nm.
(§2) IC50 values were determined using the same method as above wherein the cells were treated with the target compounds at different doses.

U87-MG human glioma cell = assay: Cell proliferation analysis (MTT); assay type: cell-based; details: Homo sapiens, U-87 MG, 48 h, 10 µM, two days, MTT
Experimental: as §1, §2

Question: How did the activity at 10 µM [1] turn out when `Cc1ccc(COc2ccc3c(c2)CCC(=O)N3)cc1` [TR-G041, 6-((4-methylbenzyl)oxy)-3,4-dihydroquinolin-2(1H)-one] was run?
Answer: 74%

Question: What about the inhibition at 10 µM [1] of the same molecule?
Answer: 26%

Question: And the activity at 10 µM (U87-MG human glioma cell)?
Answer: 70%

Question: What about the inhibition at 10 µM (U87-MG human glioma cell) of the same molecule?
Answer: 30%

Question: How did the inhibition at 10 µM [1] turn out when `O=C(COc1ccc2c(c1)CCC(=O)N2)N/N=C/c1ccc(-c2ccc(Cl)cc2)cc1` [TR-G146, (E)-N'-((4'-chloro-[1,1'-biphenyl)-4-yl)methylene)-2-((2-oxo-1,2,3,4-tetrahydroquinolin-6-yl)oxy)acetohydrazide] was run?
Answer: 21%

Question: What about the inhibition at 10 µM (U87-MG human glioma cell) of the same molecule?
Answer: 37%

Question: For `O=C1CCc2cc(OC(=O)CN3CCN(c4ncccn4)CC3)ccc2N1` [TR-G023, 2-oxo-1,2,3,4-tetrahydroquinolin-6-yl 2-(4-(pyrimidin-2-yl)piperazin-1-yl)acetate], which activity at 10 µM [1] is on record?
Answer: 99%

Question: And the inhibition at 10 µM [1]?
Answer: 1%

Question: What about the activity at 10 µM (U87-MG human glioma cell) of the same molecule?
Answer: 83%

Question: And the inhibition at 10 µM (U87-MG human glioma cell)?
Answer: 17%

Question: For `O=C1CCc2cc(OC(=O)N3CCCC3)ccc2N1` [TR-G061, 2-oxo-1,2,3,4-tetrahydroquinolin-6-yl pyrrolidine-1-carboxylate], which activity at 10 µM [1] is on record?
Answer: 92%

Question: And the inhibition at 10 µM [1]?
Answer: 8%

Question: What about the activity at 10 µM (U87-MG human glioma cell) of the same molecule?
Answer: 84%

Question: And the inhibition at 10 µM (U87-MG human glioma cell)?
Answer: 16%

Question: How did the activity at 10 µM [1] turn out when `CC(C)CCn1cc(COc2ccc3c(c2)CCC(=O)N3)nn1` [TR-G052, 6-((1-isopentyl-1H-1,2,3-triazol-4-yl)methoxy)-3,4-dihydroquinolin-2(1H)-one] was run?
Answer: 52%

Question: And the inhibition at 10 µM [1]?
Answer: 48%

Question: What about the activity at 10 µM (U87-MG human glioma cell) of the same molecule?
Answer: 85%

Question: What about the inhibition at 10 µM (U87-MG human glioma cell) of the same molecule?
Answer: 15%

Question: With `CC(=O)OCC1OC(n2cc(COc3ccc4c(c3)CCC(=O)N4)nn2)[C@H](OC(C)=O)[C@@H]1OC(C)=O` (stereo partly drawn) [TR-G058, (3R,4R)-2-(acetoxymethyl)-5-(4-(((2-oxo-1,2,3,4-tetrahydroquinolin-6-yl)oxy)methyl)-1H-1,2,3-triazol-1-yl)tetrahydrofuran-3,4-diyl diacetate] as the molecule, how does the activity at 10 µM [1] read?
Answer: 100%

Question: And the inhibition at 10 µM [1]?
Answer: 0%

Question: And the activity at 10 µM (U87-MG human glioma cell)?
Answer: 73%

Question: What about the inhibition at 10 µM (U87-MG human glioma cell) of the same molecule?
Answer: 27%

Question: `CCN(C)C(=O)Oc1ccc2c(c1)CCC(=O)N2` [TR-G037, 2-oxo-1,2,3,4-tetrahydroquinolin-6-yl ethyl(methyl)carbamate] was tested. Which activity at 10 µM [1] did it give?
Answer: 65%

Question: What about the inhibition at 10 µM [1] of the same molecule?
Answer: 35%

Question: And the activity at 10 µM (U87-MG human glioma cell)?
Answer: 91%

Question: And the inhibition at 10 µM (U87-MG human glioma cell)?
Answer: 9%

Question: How did the activity at 10 µM [1] turn out when `O=C(COc1ccc2c(c1)CCC(=O)N2)Nc1ccc2ncccc2c1` [TR-G089, 2-((2-oxo-1,23,4-tetrahydroquinolin-6-yl)oxy)-N-(quinolin-6-yl)acetamide] was run?
Answer: 67%

Question: What about the inhibition at 10 µM [1] of the same molecule?
Answer: 33%

Question: What about the activity at 10 µM (U87-MG human glioma cell) of the same molecule?
Answer: 67%

Question: And the inhibition at 10 µM (U87-MG human glioma cell)?
Answer: 33%

Question: For `O=C(COc1ccc2c(c1)CCC(=O)N2)NN=Cc1ccc(Cl)cc1` [TR-G021, N'-(4-chlorobenzylidene)-2-((2-oxo-1,2,3,4-tetrahydroquinolin-6-yl)oxy)acetohydrazide], which activity at 10 µM [1] is on record?
Answer: 60%

Question: What about the inhibition at 10 µM [1] of the same molecule?
Answer: 40%

Question: What about the activity at 10 µM (U87-MG human glioma cell) of the same molecule?
Answer: 65%

Question: And the inhibition at 10 µM (U87-MG human glioma cell)?
Answer: 36%

Question: What does the source list for `O=C(COc1ccc2c(c1)CCC(=O)N2)N/N=C/c1ccc([N+](=O)[O-])cc1` [TR-G055, (E)-N'-(4-nitrobenzylidene)-2-((2-oxo-1,2,3,4-tetrahydroquinolin-6-yl)oxy)acetohydrazide]?
Answer: activity at 10 µM [1]: 92%; inhibition at 10 µM [1]: 8%; activity at 10 µM (U87-MG human glioma cell): 85%; inhibition at 10 µM (U87-MG human glioma cell): 15%

Question: What does the source list for `O=C1CCc2cc(OC(=O)c3cccc([N+](=O)[O-])c3)ccc2N1` [TR-G081, 2-oxo-1,2,3,4-tetrahydroquinolin-6-yl 3-nitrobenzoate]?
Answer: activity at 10 µM [1]: 108%; inhibition at 10 µM [1]: -8%; activity at 10 µM (U87-MG human glioma cell): 65%; inhibition at 10 µM (U87-MG human glioma cell): 35%

Question: Which activity at 10 µM [1] does the source give for `O=C1CCc2cc(OC(=O)CCl)ccc2N1` [TR-G016, 2-oxo-1,2,3,4-tetrahydroquinolin-6-yl 2-chloroacetate] here?
Answer: 95%

Question: What about the inhibition at 10 µM [1] of the same molecule?
Answer: 5%

Question: And the activity at 10 µM (U87-MG human glioma cell)?
Answer: 78%

Question: And the inhibition at 10 µM (U87-MG human glioma cell)?
Answer: 22%

Question: What does the source list for `O=C1CCc2cc(OC(=O)c3cccc(F)c3)ccc2N1` [TR-G139, 2-oxo-1,2,3,4-tetrahydroquinolin-6-yl 3-flurobenzoate]?
Answer: activity at 10 µM [1]: 83%; inhibition at 10 µM [1]: 17%; activity at 10 µM (U87-MG human glioma cell): 71%; inhibition at 10 µM (U87-MG human glioma cell): 29%

Question: With `Cc1cn(-c2cc(NC(=O)COc3ccc4c(c3)CCC(=O)N4)cc(C(F)(F)F)c2)cn1` [TR-G054, N-(3-(4-methyl-1H-imidazol-1-yl)-5-(trifluoromethyl)phenyl)-2-((2-oxo-1,2,3,4-tetrahydroquinolin-6-yl)oxy)acetamide] as the molecule, how does the activity at 10 µM [1] read?
Answer: 79%

Question: And the inhibition at 10 µM [1]?
Answer: 21%

Question: What about the activity at 10 µM (U87-MG human glioma cell) of the same molecule?
Answer: 84%

Question: And the inhibition at 10 µM (U87-MG human glioma cell)?
Answer: 16%
